Like-named read-outs stand apart in the source and are kept apart here.
Tests used:
[1] = tested on: A431-G2; assay: In vitro cytotoxicity; assay type: cell-based
From the text: (§1) Experiments were repeated at least 3 times.

[2] = tested on: MES-SA/Dx5; assay: In vitro cytotoxicity; assay type: cell-based; conditions: MES-SA/Dx5; read-out: IC50
From the text: as §1

[3] = tested on: P388/ADR; assay: In vitro cytotoxicity; assay type: cell-based; conditions: read-out: IC50
From the text: as §1

[4] = tested on: P388; assay: In vitro cytotoxicity; assay type: cell-based
From the text: as §1

[5] = tested on: MES-SA; assay: In vitro cytotoxicity; assay type: cell-based; conditions: read-out: IC50
From the text: as §1

[6] = tested on: A431-B1; assay: In vitro cytotoxicity; assay type: cell-based
From the text: as §1

[7] = tested on: A431; assay: In vitro cytotoxicity; assay type: cell-based
From the text: as §1

[8] = tested on: Lewis Lung Carcinoma (LLC) tumor; assay: Mouse Lewis lung carcinoma (LLC) model; assay type: in vivo, C57BL/6 mice; conditions: single intravenous dose; cisplatin 5 mg/kg, LiPyDau 1 mg/kg
Experimental: FIG. 6. Anti-tumor effect of LiPyDau and cisplatin in the mouse Lewis lung cancer (LLC) lung carcinoma model. C57BL/6 mice received sc. injection of 2×10^5 LLC cells in 100 μl PBS. When the tumors were palpable, mice were randomized to receive a single intravenous dose of cisplatin (5 mg/kg) or LiPyDau (1 mg/kg) as indicated by the arrow. Control mice were treated with saline.
Mouse melanoma (B16), lung (Lewis lung carcinoma, LLC) and breast (4T1-LUC) cancer cell lines were used to establish allograft tumors for drug testing. 5×10^5 B16 or 2×10^5 LLC cells were inoculated subcutaneously in 200 μl serum-free culture media. 4T1-LUC tumors were established by injecting 1×10^6 cells in 20 μl serum-free culture media through the nipple directly to the breast tissue of 8 weeks old BALB/c mice on day 0). […] For the B16, LLC and 4T1-LUC tumor models 4, 6 and 6 mice were treated with LiPyDau while 4, 3 and 6 animals were in the saline treated groups, respectively.

[9] = tested on: RXF 393; conditions: RXF 393, NCI-60 database, sulforhodamine B; read-out: Cytotoxic IC50; cited from earlier work
[10] = tested on: CAKI-1; conditions: CAKI-1, NCI-60 database, sulforhodamine B; read-out: Cytotoxic IC50; cited from earlier work
[11] = tested on: NCI-60 cell lines; assay: NCI DTP NCI-60 cell line screen database (sulforhodamine B), panel; assay type: cell-based; conditions: Homo sapiens
[12] = tested on: MCF7; conditions: MCF7, NCI-60 database, sulforhodamine B; read-out: Cytotoxic IC50; cited from earlier work
[13] = tested on: OVCAR-3; conditions: OVCAR-3, NCI-60 database, sulforhodamine B; read-out: Cytotoxic IC50; cited from earlier work
[14] = tested on: SK-MEL-28; conditions: SK-MEL-28, NCI-60 database, sulforhodamine B; read-out: Cytotoxic IC50; cited from earlier work
[15] = tested on: MDA-MB-435; conditions: MDA-MB-435, NCI-60 database, sulforhodamine B; read-out: Cytotoxic IC50; cited from earlier work
[16] = tested on: COLO 205; conditions: COLO 205, NCI-60 database, sulforhodamine B; read-out: Cytotoxic IC50; cited from earlier work
[17] = tested on: NCI/ADR-RES; conditions: NCI-60 database, sulforhodamine B, read-out: Cytotoxic IC50; cited from earlier work
[18] = tested on: OVCAR-5; conditions: OVCAR-5, NCI-60 database, sulforhodamine B; read-out: Cytotoxic IC50; cited from earlier work
[19] = tested on: A498; conditions: A498, NCI-60 database, sulforhodamine B; read-out: Cytotoxic IC50; cited from earlier work
[20] = tested on: HCT-116; conditions: HCT-116, NCI-60 database, sulforhodamine B; read-out: Cytotoxic IC50; cited from earlier work
[21] = tested on: MALME-3M; conditions: NCI-60 database, sulforhodamine B, read-out: Cytotoxic IC50; cited from earlier work
[22] = tested on: BT-549; conditions: BT-549, NCI-60 database, sulforhodamine B; read-out: Cytotoxic IC50; cited from earlier work
[23] = tested on: HCC-2998; conditions: HCC-2998, NCI-60 database, sulforhodamine B; read-out: Cytotoxic IC50; cited from earlier work
[24] = tested on: SW-620; conditions: SW-620, NCI-60 database, sulforhodamine B; read-out: Cytotoxic IC50; cited from earlier work
[25] = tested on: HS 578T; conditions: NCI-60 database, sulforhodamine B, read-out: Cytotoxic IC50; cited from earlier work
[26] = tested on: HCT-15; conditions: HCT-15, NCI-60 database, sulforhodamine B; read-out: Cytotoxic IC50; cited from earlier work
[27] = tested on: T-47D; conditions: NCI-60 database, sulforhodamine B, read-out: Cytotoxic IC50; cited from earlier work
[28] = tested on: UO-31; conditions: UO-31, NCI-60 database, sulforhodamine B; read-out: Cytotoxic IC50; cited from earlier work
[29] = tested on: SK-MEL-2; conditions: SK-MEL-2, NCI-60 database, sulforhodamine B; read-out: Cytotoxic IC50; cited from earlier work
[30] = tested on: HT29; conditions: HT29, NCI-60 database, sulforhodamine B; read-out: Cytotoxic IC50; cited from earlier work
[31] = tested on: NCI-H226; conditions: NCI-H226, NCI-60 database, sulforhodamine B; read-out: Cytotoxic IC50; cited from earlier work
[32] = tested on: PC-3; conditions: PC-3, NCI-60 database, sulforhodamine B; read-out: Cytotoxic IC50; cited from earlier work
[33] = tested on: KM12; conditions: KM12, NCI-60 database, sulforhodamine B; read-out: Cytotoxic IC50; cited from earlier work
[34] = tested on: CCRF-CEM; conditions: NCI-60 database, sulforhodamine B, read-out: Cytotoxic IC50; cited from earlier work
[35] = tested on: MDA-MB-231; conditions: MDA-MB-231, NCI-60 database, sulforhodamine B; read-out: Cytotoxic IC50; cited from earlier work
[36] = tested on: DU-145; conditions: DU-145, NCI-60 database, sulforhodamine B; read-out: Cytotoxic IC50; cited from earlier work
[37] = tested on: OVCAR-8; conditions: OVCAR-8, NCI-60 database, sulforhodamine B; read-out: Cytotoxic IC50; cited from earlier work
[38] = tested on: HL-60(TB); conditions: NCI-60 database, sulforhodamine B, read-out: Cytotoxic IC50; cited from earlier work
[39] = tested on: HOP-62; conditions: HOP-62, NCI-60 database, sulforhodamine B; read-out: Cytotoxic IC50; cited from earlier work
[40] = tested on: PANC-1; conditions: PANC-1, from Varbanov et al. (2017), PrestoBlue; read-out: Cytotoxic IC50; cited from earlier work
[41] = tested on: EKVX; conditions: NCI-60 database, sulforhodamine B, read-out: Cytotoxic IC50; cited from earlier work
[42] = Nagy et al.; cited from earlier work
[43] = tested on: nitrosamine-induced pancreatic cancers; conditions: intraperitoneal, total dose of 100 nmol/kg; cited from earlier work
[44] = tested on: Dunning R-3327-H prostate carcinoma; conditions: cited from earlier work
[45] = tested on: patient-derived lung adenocarcinoma xenografts; assay: Patient-derived xenograft (PDX) model; assay type: in vivo, NSG mice; conditions: single treatment; LiPyDau 0.5 mg/kg, DOX 2 mg/kg, paclitaxel 12 mg/kg; 7 days
From the text: A piece from the tumor tissue was transplanted subcutaneously into the right flank and propagated in NOD.Cg-Prkdc^scid Il2rg^tm1Wjl/SzJ (NSG) mice for 7 months. After the xenografted tumor reached 1000 mm^3, tumor pieces were retransplanted subcutaneously into the right flank of 20 additional NSG mice, which were given a single treatment with various chemotherapeutics or LiPyDau. Every treatment group consists of 5 animals. After daily monitoring of the tumor volume for one week, the mice were sacrificed and the cytotoxicity of the treatments was investigated on tissue slices by image analysis.
For treatment, tumor pieces were engrafted subcutaneously.

N.N.[Cl][Pt][Cl] [Cisplatin, cisplatin]
IC50 [1]: 1950 nM | IC50 [2]: 12500 nM | IC50 [3]: 1180 nM | IC50 [4]: 610 nM | IC50 [5]: 7580 nM | IC50 [6]: 3950 nM | IC50 [7]: 3860 nM | Tumor growth [8]: did not have any measurable effect on tumor growth

COc1cccc2c1C(=O)c1c(O)c3c(c(O)c1C2=O)C[C@@](O)(C(C)=O)C[C@@H]3O[C@H]1C[C@H](N)[C@H](O)[C@H](C)O1 [Dau, daunorubicin]
IC50 [9]: 92.5 nM | IC50 [10]: 229 nM | IC50 ([11]; read-out: Cytotoxic IC50, av. breast): 112 nM | IC50 ([11]; read-out: Cytotoxic IC50, av. colorectal): 145 nM | IC50 ([11]; read-out: Cytotoxic IC50, av. leukaemia): 27 nM | IC50 ([11]; read-out: Cytotoxic IC50, av. lung): 157 nM | IC50 ([11]; read-out: Cytotoxic IC50, av. melanoma): 113 nM | IC50 ([11]; read-out: Cytotoxic IC50, av. ovarian): 388 nM | IC50 ([11]; read-out: Cytotoxic IC50, av. prostatic): 92.2 nM | IC50 ([11]; read-out: Cytotoxic IC50, av. renal): 158 nM | IC50 [12]: 19.5 nM | IC50 [13]: 124 nM | IC50 [14]: 132 nM | IC50 [15]: 137 nM | IC50 [16]: 52.5 nM | IC50 [17]: 1230 nM | IC50 [18]: 155 nM | IC50 [19]: 137 nM | IC50 [20]: 28.6 nM | IC50 [21]: 49.7 nM | IC50 [22]: 153 nM | IC50 [23]: 99.3 nM | IC50 [24]: 35.5 nM | IC50 [25]: 120 nM | IC50 [26]: 650 nM | IC50 [27]: 40.8 nM | IC50 [28]: 175 nM | IC50 [29]: 158 nM | IC50 [30]: 50.7 nM | IC50 [31]: 46.5 nM | IC50 [32]: 108 nM | IC50 [33]: 95.9 nM | IC50 [34]: 22.8 nM | IC50 [35]: 201 nM | IC50 [36]: 76.7 nM | IC50 [37]: 41.6 nM | IC50 [38]: 31.2 nM | IC50 [39]: 53 nM | IC50 [40]: 260 nM | IC50 [41]: 360 nM

COc1cccc2c1C(=O)c1c(O)c3c(c(O)c1C2=O)C[C@@](O)(C(=O)CO)C[C@@H]3O[C@H]1C[C@H](N2C=CCC2)[C@H](O)[C@H](C)O1 [PyDox, 2-pyrrolino-doxorubicin]
Potency in vitro relative to Dox [42]: 500-1000 times | Hamsters that died [43]: 16 of 18 | Animals that died ([44]; 3×25 nmol/kg, rats): 6 of 10 | Change in the number of mitotic or apoptotic cells ([44]; after treatment in rats): no significant change in the number of mitotic or apoptotic cells | Mortality ([44]; dose of 50 nmol/kg, rats): death of all rats

CC(=O)O[C@H]1C(=O)[C@@]2(C)[C@H]([C@H](OC(=O)c3ccccc3)[C@]3(O)C[C@H](OC(=O)[C@H](O)[C@@H](NC(=O)c4ccccc4)c4ccccc4)C(C)=C1C3(C)C)[C@]1(OC(C)=O)CO[C@@H]1C[C@@H]2O [paclitaxel]
Tumor growth [45]: failed to exert any effect on tumor growth
